From patent US5037830A, “Novel thiouracyl derivatives, pharmaceutical compositions containing them and process for preparing same” (Richter Gedeon Vegyeszeti Gyar RT, priority 1989, dated 1991)
Where two headings read alike, the source gives them in different places.

Legend:
[1] = test system: gastric ulcer after pylorus ligature; test: Gastric ulcer-inhibiting effect in rats operated according to Shay's method; assay type: in vivo, female OFA rats; details: Rattus norvegicus, po, 18 h, p.o.
Protocol: Female OFA rats starved for 24 hours weighing 150 to 160 g were used. (The animals were allowed to drink water ad libitum). The animals were orally treated with the substance to be tested and after 1 hour laparotomy and pylorus ligature according to Shay [Gastroenterology 5, 43 (1945)] were performed under ether anaesthesia. After 18 hours the number and size of ulcers formed on the membranaceous part of the stomach were examined under microscope. The evaluation was made in relation to the control group and the ED50 values were determined. The sizes of the ulcers were expressed as score values from 0.5 to 32.

[2] = test system: spontaneous gastric acid secretion; test: Gastric acid secretion-inhibiting effect according to Shay's method; assay type: in vivo, female OFA rats; details: for Gastric acid, change / Gastric juice, change: vs control; for Gastric acid, treated: titration with 0.1N NaOH; for ED50: po, gastric acid, Shay rat; for inhibitor effect on gastric acid secretion, in words: compared with reference drugs
Protocol: After being starved for 24 hours, female OFA rats weighing 130 to 160 g were orally treated with the compounds to be tested. (15 animals were used for each dose.) One hour later laparotomy and pylorus ligature were carried out under ether anaesthesia according to Shay [Gastroenterology 5, 43 (1945)]. After 5 hours the animals were killed by an overdose of ether, their stomaches were excised and the volume and acid content of the gastric juice were determined. The acid was measured by titration with 0.1N NaOH, by using Topfer's indicator.

[3] = test system: reserpine-induced gastric ulcer; test: Inhibition of the reserpine-induced gastric ulcer; assay type: in vivo, female OFA rats; details: Rattus norvegicus, po, 18 h, p.o., reserpine 5 mg/kg s.c.
Protocol: After being starved for 24 hours, female OFA rats were orally treated with the compounds to be tested and then subcutaneously (s.c.) with 5 mg/kg of reserpine after 1 hour. After 18 hours the animals were killed and their stomach were examined under microscope. The evaluation was performed as described under the preceding paragraph 1.

[4] = test system: necrosis induced by ethanol containing hydrochloric acid; test: Cytoprotective effect (modified Robert's test); assay type: in vivo; details: for Bleedings, change: vs control; for ED50: po, cytoprotection
Protocol: The modified Robert's test [Gastroenterology 17, 761 (1979)] was used. The necrotizing agent (100 ml of abs. ethanol containing 2 ml of concentrated hydrochloric acid) was orally administered in a volume of 0.5 ml/100 g by 30 minutes after giving the compound to be tested. (12 animals were used for each dose.) After 1 hour the animals were killed by ether and the bleedings on the glandular part of their stomach were evaluated.

[5] = read-out: ED50 related to the number of ulcers
[6] = read-out: ED50 related to the occurrance of ulcers
[7] = read-out: ED50 related to the severity of ulcers

Compound	Gastric juice, treated ([2]; 5 mg/kg p.o.)	Gastric acid, change ([2]; 5 mg/kg p.o.)	Gastric juice, change ([2]; 5 mg/kg p.o.)	Gastric acid, treated ([2]; 5 mg/kg p.o.)	Gastric juice, treated ([2]; 10 mg/kg p.o.)	Gastric acid, change ([2]; 10 mg/kg p.o.)	Gastric juice, change ([2]; 10 mg/kg p.o.)	Gastric acid, treated ([2]; 10 mg/kg p.o.)	Gastric juice, treated ([2]; 20 mg/kg p.o.)	Gastric acid, change ([2]; 20 mg/kg p.o.)	Gastric juice, change ([2]; 20 mg/kg p.o.)	Gastric acid, treated ([2]; 20 mg/kg p.o.)	ED50 [2]	Bleedings, treated ([4]; 5 mg/kg p.o.)	Bleedings, change ([4]; 5 mg/kg p.o.)	Bleedings, treated ([4]; 10 mg/kg p.o.)	Bleedings, change ([4]; 10 mg/kg p.o.)	Bleedings, treated ([4]; 20 mg/kg p.o.)	Bleedings, change ([4]; 20 mg/kg p.o.)	ED50 [4]	further results
COc1ccc2[nH]c([S+]([O-])Cc3ncc(C)c(OC)c3C)nc2c1 (centres unmarked) [Omeprazole, 2-[[(3,5-dimethyl-4-methoxypyridin-2-il)-methyl]-sulfinyl]-5-methoxy-1H-benzimidazole, reference compound]	5.40 mL	-35.4%	-21.5%	1.75 mL	5.47 mL	-37.3%	-20.5%	1.70 mL	4.30 mL	-74.7%	-38.4%	0.71 mL	10.5 mg/kg	61.8 mm	-27.1%	46.0 mm	-45.8%	14.2 mm	-83.8%	10 mg/kg	ED50 [1, 5]: 9.2 mg/kg; ED50 [1, 6]: 17 mg/kg; ED50 [1, 7]: 11 mg/kg; ED50 [3, 5]: 17 mg/kg; ED50 [3, 6]: 24 mg/kg; ED50 [3, 7]: 20 mg/kg
CCN(C)c1ccccc1CSc1nc(C)cc(=O)[nH]1 [Example 10]	–	–	–	–	5.23 mL	-32.5%	-13.7%	1.89 mL	5.23 mL	-60.3%	-18.0%	1.23 mL	15.5 mg/kg	–	–	–	–	–	–	–	Gastric juice, treated ([2]; 40 mg/kg p.o.): 5.39 mL; Gastric acid, change ([2]; 40 mg/kg p.o.): -87.3%; Gastric juice, change ([2]; 40 mg/kg p.o.): -24.8%; Gastric acid, treated ([2]; 40 mg/kg p.o.): 0.45 mL; inhibitor effect on gastric acid secretion, in words [2]: equiactive to the NC-1300 reference drug
CN(C)c1ccccc1CSc1nc(-c2ccccc2)cc(=O)[nH]1 [Example 5, 2-(2-dimethylamino-benzyl)thio-6-phenyl-4(3H)-pyrimidinone]	5.77 mL	-24.9%	-17.3%	2.11 mL	5.51 mL	-62.0%	-19.6%	2.06 mL	4.33 mL	-86.3%	-37.1%	0.37 mL	8.1 mg/kg	73.5 mm	-26.3%	47.6 mm	-52.3%	24.3 mm	-81.7%	9.9 mg/kg	Gastric juice, treated ([2]; 40 mg/kg p.o.): 6.80 mL; Gastric acid, change ([2]; 40 mg/kg p.o.): -94.5%; Gastric juice, change ([2]; 40 mg/kg p.o.): +6.8%; Gastric acid, treated ([2]; 40 mg/kg p.o.): 0.18 mL; inhibitor effect on gastric acid secretion, in words [2]: more active then either of both reference drugs
